Measurements: ChEMBL document CHEMBL5291721, “A preclinical secondary pharmacology resource illuminates target-adverse drug reaction associations of marketed drugs” (Nat Commun, 2023)

Experiments:
[1] = biological target: Beta-2 adrenergic receptor (Homo sapiens, UniProt P07550); format: functional, cell-based
[2] = biological target: Beta-1 adrenergic receptor (Homo sapiens, UniProt P08588); format: functional
[3] = biological target: T1, Neuropeptide Y receptor type 1 (Homo sapiens, UniProt P25929)
T1 sequence (P25929 whole entry): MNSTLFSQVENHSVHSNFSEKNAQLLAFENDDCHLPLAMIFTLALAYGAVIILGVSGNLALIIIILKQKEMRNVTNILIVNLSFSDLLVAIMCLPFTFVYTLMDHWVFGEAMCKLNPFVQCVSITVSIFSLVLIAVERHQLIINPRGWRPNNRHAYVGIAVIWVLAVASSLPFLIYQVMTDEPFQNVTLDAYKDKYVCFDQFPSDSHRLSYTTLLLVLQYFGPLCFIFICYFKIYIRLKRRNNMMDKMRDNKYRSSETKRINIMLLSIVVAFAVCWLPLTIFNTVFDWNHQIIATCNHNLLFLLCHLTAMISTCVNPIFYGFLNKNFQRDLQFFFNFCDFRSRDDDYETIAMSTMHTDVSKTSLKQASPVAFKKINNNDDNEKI

[4] = biological target: T2, Gamma-aminobutyric acid receptor subunit alpha-1 (Rattus norvegicus, UniProt P62813); format: functional
Cannabinoid receptor 1 = Cannabinoid receptor 1 (Homo sapiens, UniProt P21554); format: functional, cell-based
[5] = biological target: Growth hormone secretagogue receptor type 1 (Homo sapiens, UniProt Q92847)
[6] = biological target: T3, Alpha-1A adrenergic receptor (Homo sapiens, UniProt P35348); format: functional, cell-based
T3 sequence (P35348 whole entry): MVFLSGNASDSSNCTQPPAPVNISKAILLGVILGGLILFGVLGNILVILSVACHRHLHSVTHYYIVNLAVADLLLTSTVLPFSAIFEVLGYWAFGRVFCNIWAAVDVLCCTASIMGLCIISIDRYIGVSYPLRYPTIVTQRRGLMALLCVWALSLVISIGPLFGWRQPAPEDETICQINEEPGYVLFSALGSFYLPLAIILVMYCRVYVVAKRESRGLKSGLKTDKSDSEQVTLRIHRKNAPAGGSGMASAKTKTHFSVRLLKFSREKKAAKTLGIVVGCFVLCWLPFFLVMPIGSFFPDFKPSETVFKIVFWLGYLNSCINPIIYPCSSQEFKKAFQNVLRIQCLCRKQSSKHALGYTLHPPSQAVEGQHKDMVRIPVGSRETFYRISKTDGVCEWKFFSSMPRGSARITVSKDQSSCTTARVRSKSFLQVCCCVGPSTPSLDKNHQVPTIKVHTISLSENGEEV

Histamine H3 receptor = Histamine H3 receptor (Homo sapiens, UniProt Q9Y5N1)
[7] = biological target: T4, 5-hydroxytryptamine receptor 2C (Homo sapiens, UniProt P28335)
T4 sequence (P28335 whole entry): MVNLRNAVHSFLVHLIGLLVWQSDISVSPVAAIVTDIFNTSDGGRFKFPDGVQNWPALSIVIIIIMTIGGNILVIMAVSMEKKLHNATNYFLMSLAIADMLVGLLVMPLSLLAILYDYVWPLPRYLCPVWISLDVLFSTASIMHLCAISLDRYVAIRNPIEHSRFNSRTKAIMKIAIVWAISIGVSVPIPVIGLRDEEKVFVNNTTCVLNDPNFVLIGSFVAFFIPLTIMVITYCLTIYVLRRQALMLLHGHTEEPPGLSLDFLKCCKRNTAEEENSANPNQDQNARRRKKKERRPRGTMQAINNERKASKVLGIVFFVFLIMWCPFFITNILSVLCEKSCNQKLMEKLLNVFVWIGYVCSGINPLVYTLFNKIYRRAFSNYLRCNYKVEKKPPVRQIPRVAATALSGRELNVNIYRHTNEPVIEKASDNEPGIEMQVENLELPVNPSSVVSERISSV

[8] = biological target: T2, Gamma-aminobutyric acid receptor subunit alpha-1
Glucocorticoid receptor = biological target: T5, Glucocorticoid receptor (Homo sapiens, UniProt P04150)
T5 sequence (P04150 whole entry): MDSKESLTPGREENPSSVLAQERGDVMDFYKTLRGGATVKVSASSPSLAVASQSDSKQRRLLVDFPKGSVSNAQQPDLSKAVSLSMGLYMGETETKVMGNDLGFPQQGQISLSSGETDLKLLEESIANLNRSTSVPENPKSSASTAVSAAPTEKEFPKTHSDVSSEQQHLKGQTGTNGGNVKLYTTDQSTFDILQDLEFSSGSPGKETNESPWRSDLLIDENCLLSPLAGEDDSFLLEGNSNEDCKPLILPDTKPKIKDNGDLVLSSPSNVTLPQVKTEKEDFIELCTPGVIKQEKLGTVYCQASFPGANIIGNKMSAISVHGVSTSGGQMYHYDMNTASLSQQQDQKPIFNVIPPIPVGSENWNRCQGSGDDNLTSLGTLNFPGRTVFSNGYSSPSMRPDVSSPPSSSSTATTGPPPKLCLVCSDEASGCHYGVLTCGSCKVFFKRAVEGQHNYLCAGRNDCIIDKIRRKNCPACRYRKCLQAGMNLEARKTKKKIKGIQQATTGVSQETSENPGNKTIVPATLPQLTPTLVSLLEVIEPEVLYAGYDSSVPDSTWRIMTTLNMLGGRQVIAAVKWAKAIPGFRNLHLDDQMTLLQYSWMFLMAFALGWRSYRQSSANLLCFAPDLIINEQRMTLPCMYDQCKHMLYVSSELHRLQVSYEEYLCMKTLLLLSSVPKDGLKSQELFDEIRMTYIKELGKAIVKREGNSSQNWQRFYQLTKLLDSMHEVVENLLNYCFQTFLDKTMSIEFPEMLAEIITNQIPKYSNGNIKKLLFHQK
Note: assay procedure not described here.

T2 sequence (P62813 whole entry): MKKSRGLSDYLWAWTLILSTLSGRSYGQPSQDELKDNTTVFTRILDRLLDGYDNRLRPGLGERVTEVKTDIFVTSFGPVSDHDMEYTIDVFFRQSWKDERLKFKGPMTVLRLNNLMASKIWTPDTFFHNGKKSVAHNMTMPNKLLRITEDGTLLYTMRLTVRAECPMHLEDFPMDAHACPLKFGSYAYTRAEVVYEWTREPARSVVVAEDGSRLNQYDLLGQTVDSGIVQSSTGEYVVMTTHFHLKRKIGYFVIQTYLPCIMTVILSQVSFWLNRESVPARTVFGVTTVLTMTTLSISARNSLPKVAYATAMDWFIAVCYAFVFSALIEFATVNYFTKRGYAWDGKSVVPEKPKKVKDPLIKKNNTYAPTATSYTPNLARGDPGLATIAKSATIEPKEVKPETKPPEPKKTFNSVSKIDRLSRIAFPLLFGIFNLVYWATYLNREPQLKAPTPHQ
Chain of Histamine H3 receptor (Q9Y5N1 whole entry): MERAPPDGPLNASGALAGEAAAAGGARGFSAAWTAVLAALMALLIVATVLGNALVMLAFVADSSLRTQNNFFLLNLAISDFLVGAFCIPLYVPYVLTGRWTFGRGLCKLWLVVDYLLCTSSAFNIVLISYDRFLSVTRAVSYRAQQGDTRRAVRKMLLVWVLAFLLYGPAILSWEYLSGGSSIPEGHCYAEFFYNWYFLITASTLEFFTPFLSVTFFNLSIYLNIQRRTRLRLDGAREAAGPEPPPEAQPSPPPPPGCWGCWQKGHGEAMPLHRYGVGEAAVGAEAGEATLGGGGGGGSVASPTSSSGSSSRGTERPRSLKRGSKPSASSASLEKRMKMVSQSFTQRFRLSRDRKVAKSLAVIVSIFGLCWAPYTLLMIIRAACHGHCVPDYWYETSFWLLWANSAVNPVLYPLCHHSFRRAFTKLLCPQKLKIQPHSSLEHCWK
Chain of Beta-1 adrenergic receptor (P08588 whole entry): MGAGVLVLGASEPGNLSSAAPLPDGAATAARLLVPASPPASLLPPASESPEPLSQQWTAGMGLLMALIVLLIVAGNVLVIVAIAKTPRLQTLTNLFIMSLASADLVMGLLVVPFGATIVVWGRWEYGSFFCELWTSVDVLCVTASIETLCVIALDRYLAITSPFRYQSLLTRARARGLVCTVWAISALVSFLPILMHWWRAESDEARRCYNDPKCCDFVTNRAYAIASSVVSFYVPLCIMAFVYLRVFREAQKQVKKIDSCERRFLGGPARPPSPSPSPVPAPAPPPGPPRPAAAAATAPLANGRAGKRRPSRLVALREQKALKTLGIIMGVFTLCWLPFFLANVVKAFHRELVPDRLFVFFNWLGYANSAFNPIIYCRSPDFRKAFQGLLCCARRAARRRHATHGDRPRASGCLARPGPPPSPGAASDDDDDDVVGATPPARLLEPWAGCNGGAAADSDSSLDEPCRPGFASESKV
Chain of Cannabinoid receptor 1 (P21554 whole entry): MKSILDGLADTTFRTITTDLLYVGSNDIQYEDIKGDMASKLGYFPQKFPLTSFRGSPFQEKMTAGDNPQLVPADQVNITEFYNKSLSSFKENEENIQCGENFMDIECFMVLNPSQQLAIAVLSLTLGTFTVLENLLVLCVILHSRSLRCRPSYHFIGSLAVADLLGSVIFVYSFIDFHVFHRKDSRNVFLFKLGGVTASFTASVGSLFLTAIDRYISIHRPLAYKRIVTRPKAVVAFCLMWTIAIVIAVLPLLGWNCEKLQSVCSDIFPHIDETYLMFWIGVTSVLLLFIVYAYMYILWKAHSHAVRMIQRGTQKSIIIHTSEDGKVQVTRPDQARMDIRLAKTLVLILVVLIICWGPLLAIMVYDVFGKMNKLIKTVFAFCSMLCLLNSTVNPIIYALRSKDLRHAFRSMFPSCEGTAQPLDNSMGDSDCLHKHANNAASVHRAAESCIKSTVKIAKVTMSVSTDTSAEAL
Chain of Growth hormone secretagogue receptor type 1 (Q92847 whole entry): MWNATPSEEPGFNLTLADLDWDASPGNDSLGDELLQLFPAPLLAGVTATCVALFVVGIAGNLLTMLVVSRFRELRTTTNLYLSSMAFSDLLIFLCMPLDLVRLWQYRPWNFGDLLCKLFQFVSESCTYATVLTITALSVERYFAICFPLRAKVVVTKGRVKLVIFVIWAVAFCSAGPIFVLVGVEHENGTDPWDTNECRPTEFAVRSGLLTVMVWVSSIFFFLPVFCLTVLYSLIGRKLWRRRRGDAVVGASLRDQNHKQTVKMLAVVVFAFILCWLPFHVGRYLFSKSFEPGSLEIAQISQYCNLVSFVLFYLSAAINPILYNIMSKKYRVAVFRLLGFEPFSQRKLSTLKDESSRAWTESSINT
Chain of Beta-2 adrenergic receptor (P07550 whole entry): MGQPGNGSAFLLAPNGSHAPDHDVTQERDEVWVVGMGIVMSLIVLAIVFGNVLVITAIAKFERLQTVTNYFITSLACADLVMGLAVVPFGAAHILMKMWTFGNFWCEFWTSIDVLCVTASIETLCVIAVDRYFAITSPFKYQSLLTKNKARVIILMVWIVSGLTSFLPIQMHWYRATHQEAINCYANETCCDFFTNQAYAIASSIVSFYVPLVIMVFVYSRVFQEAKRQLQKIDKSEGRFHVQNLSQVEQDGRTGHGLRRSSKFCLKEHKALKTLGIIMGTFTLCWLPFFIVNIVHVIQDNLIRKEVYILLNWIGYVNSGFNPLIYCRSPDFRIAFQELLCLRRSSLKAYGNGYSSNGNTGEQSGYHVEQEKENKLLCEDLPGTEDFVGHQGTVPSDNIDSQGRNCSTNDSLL

Row | SMILES | AC50 [1] [µM] | AC50 [2] [µM] | AC50 [3] [µM] | AC50 [4] [µM] | AC50 (Cannabinoid receptor 1) [µM] | AC50 [5] [µM] | AC50 [6] [µM] | AC50 (Histamine H3 receptor) [µM] | AC50 [7] [µM] | AC50 [8] [µM] | AC50 (Glucocorticoid receptor) [µM]
1 | CC[C@@H](C(N)=O)N1CCCC1=O | > 30 | > 30 | > 30 | > 30 | > 30 | > 30 | > 30 | > 30 | > 30 | – | –
2 | CCC(CC)(CC(=O)Nc1cccc(/C=C/c2nc(C3CCC3)cs2)c1)C(=O)O | – | 14 | > 30 | – | – | > 30 | – | > 30 | – | – | –
3 | CCCC1O[C@@H]2C[C@H]3[C@@H]4CCC5=CC(=O)C=C[C@]5(C)[C@H]4[C@@H](O)C[C@]3(C)[C@]2(C(=O)CO)O1 (some centres not stated) [BUDESONIDE] | – | > 10 | > 10 | > 10 | – | > 10 | – | > 10 | > 30 | > 10 | –
4 | C=CCN1C[C@H](C(=O)N(CCCN(C)C)C(=O)NCC)C[C@@H]2c3cccc4[nH]cc(c34)C[C@H]21 [CABERGOLINE] | > 30 | > 10 | > 10 | > 10 | > 30 | > 10 | 0.599 | – | > 30 | > 10 | > 10
5 | CN1CCN(C2=Nc3ccccc3Sc3ccc(Cl)cc32)CC1 [CLOTHIAPINE] | > 30 | – | – | > 30 | > 30 | – | > 30 | – | 0.8 | > 30 | –
6 | CN(C)CCC=C1c2ccccc2C=Cc2ccccc21 [CYCLOBENZAPRINE] | > 30 | > 10 | > 30 | > 10 | > 30 | > 30 | > 30 | > 10 | 0.88 | > 10 | > 30
7 | CCOc1ccc(Cc2cc([C@@H]3O[C@H](CO)[C@@H](O)[C@H](O)[C@H]3O)ccc2Cl)cc1 [DAPAGLIFLOZIN] | – | > 10 | > 30 | > 10 | – | > 30 | – | > 10 | > 30 | > 10 | > 30
8 | CN(C)CC/C=C1\c2ccccc2CSc2ccccc21 [DOTHIEPIN] | > 30 | > 30 | > 30 | > 30 | > 30 | > 30 | > 30 | 29 | 1.6 | > 30 | > 30
9 | CC[C@H]1CN2CCc3cc(OC)c(OC)cc3[C@@H]2C[C@@H]1C[C@H]1NCCc2cc(OC)c(OC)cc21 [EMETINE] | > 30 | > 30 | > 30 | > 30 | > 30 | > 30 | > 30 | > 30 | > 30 | > 30 | > 30
10 | COc1ccc(C(=O)Nc2ccccc2CCC2CCCCN2C)cc1 (configuration not stated) [ENCAINIDE] | > 30 | > 10 | > 30 | > 10 | > 30 | > 30 | > 30 | > 10 | 0.81 | > 10 | > 30
11 | O=[N+]([O-])O[C@@H]1CO[C@H]2[C@@H]1OC[C@@H]2O [ISOSORBIDE MONONITRATE] | – | > 10 | > 30 | > 10 | – | > 30 | – | > 10 | > 30 | > 10 | > 30
12 | Cc1cc(C)c(NC(=O)CN(CC(=O)O)CC(=O)O)c(C)c1Br [MEBROFENIN] | > 30 | – | – | > 30 | > 30 | – | > 30 | – | > 30 | > 30 | –
13 | COc1ccccc1N1CCN(CC(O)COc2cccc3ccccc23)CC1 (configuration not stated) [NAFTOPIDIL] | > 30 | 1.1 | – | > 30 | > 30 | – | > 30 | – | > 30 | > 30 | 8.9
14 | COc1cc2nc(N3CCN(C(=O)c4ccco4)CC3)nc(N)c2cc1OC [PRAZOSIN] | – | > 10 | > 30 | > 10 | > 30 | > 30 | – | > 10 | > 30 | > 10 | > 30
15 | O=[N+]([O-])c1cn2c(n1)OC[C@@H](OCc1ccc(OC(F)(F)F)cc1)C2 [PRETOMANID] | – | > 10 | > 30 | > 10 | – | > 30 | – | – | > 10 | > 10 | –
16 | Cc1oc(=O)oc1CN1CCN(c2cc3c(cc2F)c(=O)c(C(=O)O)c2n3C(C)S2)CC1 (configuration not stated) [PRULIFLOXACIN] | > 30 | – | – | > 30 | > 30 | – | > 30 | – | > 30 | > 30 | –
17 | CCCCCNC(=N)N/N=C/c1c[nH]c2ccc(OC)cc12 [TEGASEROD] | – | 7.02 | 11.4 | 13 | – | 11.4 | > 30 | 27.2 | 0.543 | > 30 | > 30
18 | COC1=C(OC)C(=O)C(C/C=C(\C)CC/C=C(\C)CC/C=C(\C)CC/C=C(\C)CC/C=C(\C)CC/C=C(\C)CC/C=C(\C)CC/C=C(\C)CC/C=C(\C)CCC=C(C)C)=C(C)C1=O [UBIDECARENONE] | > 30 | – | – | > 30 | > 30 | – | > 30 | – | > 30 | > 30 | –
19 | CCOc1ccccc1OCC1CNCCO1 (configuration not stated) [VILOXAZINE] | > 30 | > 10 | > 30 | > 10 | > 30 | > 30 | > 30 | > 10 | – | > 10 | > 30
20 | CN(C)CCc1c[nH]c2ccc(C[C@H]3COC(=O)N3)cc12 [ZOLMITRIPTAN] | > 30 | > 30 | > 30 | > 30 | > 30 | > 30 | 14 | > 30 | > 30 | > 30 | > 30
